Experimental data: ChEMBL document CHEMBL5579805, “Synthesis, antibacterial activity, and 3D-QASR studies of matrine-indole derivatives as potential antibiotics” (2024)
Converted amounts (≈) assume the structure as drawn.

Assays:
Assay type in all cases: functional
Escherichia coli = assay: Antibacterial activity against Escherichia coli by two-fold dilution method
Staphylococcus aureus = assay: Antibacterial activity against Staphylococcus aureus by two-fold dilution method; conditions: for MIC: Staphylococcus aureus
Pseudomonas aeruginosa = assay: Antibacterial activity against Pseudomonas aeruginosa by two-fold dilution method
Cutibacterium acnes = assay: Antibacterial activity against Propionibacterium acnes by two-fold dilution method
Candida albicans = assay: […] activity against Candida albicans by two-fold dilution method; conditions: for MIC: Candida albicans

Row | SMILES | MIC (Escherichia coli) [µg/mL] | -logMIC (Staphylococcus aureus) | MIC (Staphylococcus aureus) [µg/mL] | MIC (Pseudomonas aeruginosa) [µg/mL] | MIC (Cutibacterium acnes) [µg/mL] | -logMIC (Candida albicans) | MIC (Candida albicans) [µg/mL]
1 | COC(=O)CCC[C@@H]1[C@H]2CCCN3CCC[C@@H](CN1C(=O)c1cc4ccc(Cl)cc4n1Cc1ccc(Br)cc1)[C@@H]23 | 0.762 (≈ 1.22 µM) | 0.06 | 1.15 (≈ 1.83 µM) | 0.467 (≈ 0.745 µM) | 0.121 (≈ 0.193 µM) | -1.14 | 13.7 (≈ 21.9 µM)
2 | COC(=O)CCC[C@@H]1[C@H]2CCCN3CCC[C@@H](CN1C(=O)c1cc4ccc(Cl)cc4n1Cc1ccc(F)c(F)c1)[C@@H]23 | 0.483 (≈ 0.827 µM) | 0.37 | 0.427 (≈ 0.731 µM) | 0.5 (≈ 0.856 µM) | 0.12 (≈ 0.205 µM) | -0.98 | 9.55 (≈ 16.3 µM)
3 | COC(=O)CCC[C@@H]1[C@H]2CCCN3CCC[C@@H](CN1C(=O)c1cc4ccc(Cl)cc4n1Cc1ccccc1[N+](=O)[O-])[C@@H]23 | 0.694 (≈ 1.17 µM) | 0.876 | 0.133 (≈ 0.224 µM) | 0.852 (≈ 1.44 µM) | 2.86 (≈ 4.82 µM) | -1.05 | 11.1 (≈ 18.8 µM)
4 | COC(=O)CCC[C@@H]1[C@H]2CCCN3CCC[C@@H](CN1C(=O)c1cc4ccccc4[nH]1)[C@@H]23 | 2.97 (≈ 7.01 µM) | -0.991 | 9.79 (≈ 23.1 µM) | 1.08 (≈ 2.56 µM) | 1.23 (≈ 2.91 µM) | -1.16 | 14.3 (≈ 33.7 µM)
5 | COC(=O)CCC[C@@H]1[C@H]2CCCN3CCC[C@@H](CN1C(=O)c1cc4ccc(Cl)cc4n1Cc1ccc(F)cc1)[C@@H]23 | 0.618 (≈ 1.09 µM) | 0.035 | 0.923 (≈ 1.63 µM) | 0.806 (≈ 1.42 µM) | 0.199 (≈ 0.352 µM) | -0.77 | 5.89 (≈ 10.4 µM)
6 | COC(=O)CCC[C@@H]1[C@H]2CCCN3CCC[C@@H](CN1C(=O)c1cc4ccc(Cl)cc4n1Cc1ccc(C(C)(C)C)cc1)[C@@H]23 | 1.22 (≈ 2.02 µM) | 1.071 | 0.085 (≈ 0.141 µM) | 0.654 (≈ 1.08 µM) | 1.33 (≈ 2.19 µM) | -1.26 | 18.1 (≈ 29.9 µM)
7 | COC(=O)CCC[C@@H]1[C@H]2CCCN3CCC[C@@H](CN1C(=O)c1cc4ccc(Cl)cc4n1Cc1ccc(-c4ccccc4)cc1)[C@@H]23 | 1.16 (≈ 1.86 µM) | 1.276 | 0.053 (≈ 0.0849 µM) | 0.55 (≈ 0.881 µM) | 0.373 (≈ 0.598 µM) | -1.37 | 23.2 (≈ 37.2 µM)
8 | COC(=O)CCC[C@@H]1[C@H]2CCCN3CCC[C@@H](CN1C(=O)c1cc4ccc(Cl)cc4n1Cc1ccc(F)cc1Br)[C@@H]23 | 1.04 (≈ 1.62 µM) | 0.458 | 0.348 (≈ 0.54 µM) | 0.445 (≈ 0.69 µM) | 0.351 (≈ 0.544 µM) | -0.942 | 8.74 (≈ 13.6 µM)
9 | COC(=O)CCC[C@@H]1[C@H]2CCCN3CCC[C@@H](CN1C(=O)c1cc4ccc(Cl)cc4n1Cc1ccccc1C)[C@@H]23 | 1.1 (≈ 1.97 µM) | 1.201 | 0.063 (≈ 0.112 µM) | 0.72 (≈ 1.28 µM) | 0.271 (≈ 0.482 µM) | -1.29 | 19.6 (≈ 34.8 µM)
10 | COC(=O)CCC[C@@H]1[C@H]2CCCN3CCC[C@@H](CN1C(=O)c1cc4ccc(Cl)cc4n1Cc1ccc([N+](=O)[O-])cc1)[C@@H]23 | 0.523 (≈ 0.882 µM) | 0.745 | 0.18 (≈ 0.303 µM) | 0.28 (≈ 0.472 µM) | 0.053 (≈ 0.0894 µM) | -0.846 | 7.01 (≈ 11.8 µM)
11 | COC(=O)CCC[C@@H]1[C@H]2CCCN3CCC[C@@H](CN1C(=O)c1cc4ccc(Cl)cc4n1Cc1ccc(OC)cc1)[C@@H]23 | 0.775 (≈ 1.34 µM) | 0.451 | 0.354 (≈ 0.612 µM) | 0.627 (≈ 1.08 µM) | 0.404 (≈ 0.699 µM) | -0.905 | 8.04 (≈ 13.9 µM)
12 | COC(=O)CCC[C@@H]1[C@H]2CCCN3CCC[C@@H](CN1C(=O)c1cc4ccc(Cl)cc4n1Cc1ccc4ccccc4c1)[C@@H]23 | 0.892 (≈ 1.49 µM) | 1.187 | 0.065 (≈ 0.109 µM) | 0.42 (≈ 0.702 µM) | 0.175 (≈ 0.293 µM) | -1.09 | 12.2 (≈ 20.4 µM)
13 | COC(=O)CCC[C@@H]1[C@H]2CCCN3CCC[C@@H](CN1C(=O)c1cc4ccc(Cl)cc4[nH]1)[C@@H]23 | 2.55 (≈ 5.57 µM) | 0.207 | 1.61 (≈ 3.52 µM) | 0.661 (≈ 1.44 µM) | 0.636 (≈ 1.39 µM) | -0.819 | 6.59 (≈ 14.4 µM)
14 | COC(=O)CCC[C@@H]1[C@H]2CCCN3CCC[C@@H](CN1C(=O)c1cc4ccc(Cl)cc4n1Cc1c(Cl)cccc1Cl)[C@@H]23 | 0.82 (≈ 1.33 µM) | 0.785 | 0.164 (≈ 0.266 µM) | 0.207 (≈ 0.335 µM) | 0.203 (≈ 0.329 µM) | -0.833 | 6.81 (≈ 11 µM)
15 | COC(=O)CCC[C@@H]1[C@H]2CCCN3CCC[C@@H](CN1C(=O)c1cc4ccc(Cl)cc4n1Cc1ccc(Cl)cc1)[C@@H]23 | 0.812 (≈ 1.39 µM) | 0.73 | 0.186 (≈ 0.319 µM) | 0.633 (≈ 1.09 µM) | 0.246 (≈ 0.422 µM) | -1.13 | 13.5 (≈ 23.1 µM)
16 | COC(=O)CCC[C@@H]1[C@H]2CCCN3CCC[C@@H](CN1C(=O)c1cc4ccc(Cl)cc4n1Cc1ccc(C(F)(F)F)cc1)[C@@H]23 | 0.379 (≈ 0.615 µM) | 1.678 | 0.021 (≈ 0.0341 µM) | 0.092 (≈ 0.149 µM) | 0.03 (≈ 0.0487 µM) | -0.448 | 2.81 (≈ 4.55 µM)
17 | COC(=O)CCC[C@@H]1[C@H]2CCCN3CCC[C@@H](CN1C(=O)c1cc4ccc(Cl)cc4n1Cc1ccc(C)cc1)[C@@H]23 | 1.09 (≈ 1.93 µM) | 0.221 | 1.66 (≈ 2.96 µM) | 0.773 (≈ 1.38 µM) | 0.508 (≈ 0.904 µM) | -0.907 | 8.08 (≈ 14.4 µM)
18 | COC(=O)CCC[C@@H]1[C@H]2CCCN3CCC[C@@H](CN1C(=O)c1cc4ccc(Cl)cc4n1Cc1cc(Cl)ccc1F)[C@@H]23 | 0.848 (≈ 1.41 µM) | 1.013 | 0.097 (≈ 0.162 µM) | 0.5 (≈ 0.833 µM) | 0.084 (≈ 0.14 µM) | -0.739 | 5.48 (≈ 9.12 µM)
19 | COC(=O)CCC[C@@H]1[C@H]2CCCN3CCC[C@@H](CN1C(=O)c1cc4ccc(Cl)cc4n1Cc1cccc([N+](=O)[O-])c1)[C@@H]23 | 0.954 (≈ 1.61 µM) | 1.509 | 0.031 (≈ 0.0523 µM) | 0.387 (≈ 0.652 µM) | 0.248 (≈ 0.418 µM) | -1.07 | 11.7 (≈ 19.7 µM)
20 | COC(=O)CCC[C@@H]1[C@H]2CCCN3CCC[C@@H](CN1C(=O)c1cc4ccc(Cl)cc4n1Cc1ccccc1)[C@@H]23 | 1.23 (≈ 2.25 µM) | 0.283 | 0.521 (≈ 0.951 µM) | 0.844 (≈ 1.54 µM) | 0.478 (≈ 0.872 µM) | -0.951 | 8.94 (≈ 16.3 µM)
21 | COC(=O)CCC[C@@H]1[C@H]2CCCN3CCC[C@@H](CN1C(=O)c1cc4ccc(Cl)cc4n1Cc1cccc4ccccc14)[C@@H]23 | 0.649 (≈ 1.08 µM) | 0.519 | 0.303 (≈ 0.507 µM) | 0.534 (≈ 0.893 µM) | 0.14 (≈ 0.234 µM) | -1.08 | 12.1 (≈ 20.2 µM)
22 | COC(=O)CCC[C@@H]1[C@H]2CCCN3CCC[C@@H](CN1C(=O)c1cc4ccc(Cl)cc4n1Cc1cccc(C)c1)[C@@H]23 | 1.3 (≈ 2.31 µM) | 0.567 | 0.271 (≈ 0.482 µM) | 0.536 (≈ 0.953 µM) | 0.305 (≈ 0.543 µM) | -1.06 | 11.6 (≈ 20.6 µM)
23 | CC(C)(O/N=C(\C(=O)N[C@@H]1C(=O)N2C(C(=O)[O-])=C(C[n+]3ccccc3)CS[C@H]12)c1csc(N)n1)C(=O)O [CEFTAZIDIME] |  |  |  | 0.042 (≈ 0.0768 µM) |  |  | 
24 | C[C@H]1c2cccc(O)c2C(=O)C2=C(O)[C@]3(O)C(=O)C(C(N)=O)=C(O)[C@@H](N(C)C)[C@@H]3[C@@H](O)[C@@H]21.Cl [DOXYCYCLINE HYDROCHLORIDE] |  |  |  |  | 0.023 |  | 
25 | OC(Cn1cncn1)(Cn1cncn1)c1ccc(F)cc1F [FLUCONAZOLE] |  |  |  |  |  |  | 4.85 (≈ 15.8 µM)
26 | NC[C@H]1O[C@H](O[C@H]2[C@H](O)[C@@H](O[C@H]3O[C@H](CO)[C@@H](O)[C@H](N)[C@H]3O)[C@H](N)C[C@@H]2N)[C@H](O)[C@@H](O)[C@@H]1O.O=S(=O)(O)O [KANAMYCIN SULFATE] | 0.052 |  |  |  |  |  | 
27 | CC1(C)S[C@@H]2[C@H](NC(=O)Cc3ccccc3)C(=O)N2[C@H]1C(=O)[O-].[Na+] [PENICILLIN G SODIUM] |  |  | 0.037 |  |  |  | 
